We go through two compounds from patent US6472392B1, “Triazole compounds and the use thereof as dopamine-D3 -ligands” (Abbott Laboratories, priority 1997, dated 2002).

One may read the melting point as the temperature, or range, at which the solid turns liquid.

Molecules are shown by their SMILES.

The compound `Cn1c(CCCCN2CCN(c3cc(C(C)(C)C)nc(C(C)(C)C)n3)CC2)nnc1-c1ccccc1` [Example 22, 3-{4-[4-(2,6-Di-t-butylpyrimidin-4-yl)piperazin-1-yl]butyl}-4-methyl-5-phenyl-1,2,4-(4H)-triazole] displayed a melting point of 144 to 145 °C.
Under `Cn1c(C=CCCN2CCN(c3cc(C(C)(C)C)nc(C(C)(C)C)n3)CC2)nnc1-c1ccccc1` [Example 21, 3-{4-[4-(2,6-Di-t-butylpyrimidin-4-yl)piperazin-1-yl]but-1-enyl}-4-methyl-5-phenyl-1,2,4-(4H)-triazole] stands 156 to 161 °C.
